Results taken from patent publication US20240025892A1 (priority 2020, published 2024).
“Also recorded” adds a separate entry of the source.

Legend:
RANKL = RANKL gene expression in Ocy454 cells (RT-qPCR); settings: for RANKL expression: 4 hours, RT-qPCR;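 for all read-outs here: Ocy454 cells moved to 37 °C for osteocytic differentiation before compound exposure, RANKL mRNA by SYBR Green qRT-PCR, 2^−ΔΔCT with β-actin normalization, duplicate wells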
[1] = Initial mouse pharmacokinetic study; format: in vivo
[2] = 3-week mouse study: tolerability and serum drug levels; format: in vivo, mice
Description: […]. For oral gavage, cmpd. 51 was dissolved in vehicle solution of 15% hydroxy-propyl beta-cyclodextrin in sterile water.
(§1) […]. In addition, one group of mice with oral vehicle solution (negative control) and another group of mice were treated with once daily subcutaneous hPTH(1-34) (80 μg/kg) injections (positive control). […].

[3] = system: eugonadal 8 week old male mice; assay: 3-week mouse study: femur microCT; format: in vivo; settings: 3 weeks; for midshaft cortical bone tissue mineral density (TMD), microCT: femur
Description: as §1

SOST = SOST gene expression in Ocy454 cells (RT-qPCR); format: cell-based; settings: 4 hours
HDAC4/5 = HDAC4/5 phosphorylation immunoblot in Ocy454 cells; format: cell-based; settings: 2 hours
Description: Immunoblotting was performed as previously described (see e.g., Wein et al, Nature Communications, 2016, 7:13176; and Sato et al, Nature Communications, 2020, 11(1):3282). […]. Adherent cells were washed with ice cold PBS, then scraped into TNT buffer on ice. Material was then transferred into Eppendorf tubes kept on ice, vortexed at top speed for 30 seconds, then centrifuged at top speed for 6 minutes at 4° C. For subcellular fractionation, cells were initially resuspended in hypotonic lysis buffer (20 mM HEPES, 10 mM KCl, 1 mM MgCl2, 0.1% Triton X-100, 5% glycerol supplemented with DTT, protease inhibitors, and phosphatase inhibitors) for 5 minutes on ice. Nuclear pellets were spun down at 5,000 rpm for 5 minutes, and the supernatant was saved as the cytoplasmic lysate. Thereafter, the nuclear pellet was washed once in 1 mL hypotonic lysis buffer. The nuclear pellet was then resuspended in hypertonic lysis buffer (20 mM HEPES, 400 mM NaCl, 1 mM EDTA, 0.1% Triton X-100, 5% glycerol supplemented with DTT, protease inhibitors, and phosphatase inhibitors), followed by vortexing twice for 30 seconds. Debris was spun down at 14,000 rpm for 5 minutes, and the supernatant was saved as the nuclear lysate. For immunoblotting, lysates or immunoprecipitates were separated by SDS-PAGE and proteins were transferred to nitrocellulose. Membranes were blocked with 5% milk in tris-buffered saline plus 0.05% Tween-20 (TBST) and incubated with primary antibody overnight at 4° C. The next day, membranes were washed, incubated with appropriate HRP-coupled secondary antibodies, and signals detected with ECL Western Blotting Substrate (Pierce), ECL Plus Western Blotting Substrate (Pierce), or SuperSignal West Femto Maximum Sensitivity Substrate (Thermo scientific). The primary antibodies phospho-HDAC4/5/7 (S246/S259/S155) (Cell Signaling Technology, 3443) and total HDAC5 (Assay Biotech, C0225).

[4] = system: eugonadal 8 week old male mice; assay: 3-week mouse study: tibia histology and femur histomorphometry; format: in vivo; settings: 3 weeks
Description: as §1

CRTC2 (TORC2) = assay: CRTC2 nuclear translocation (PathHunter U2OS); format: cell-based
In short: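 U2OS enzyme-fragment complementation cells (ED-tagged CRTC2, EA-tagged nuclear TAZ domain) treated 90 minutes, duplicate 5-point 4-fold dilutions from 10 μM. Chemiluminescent substrate signal; maximal translocation expressed as percent of forskolin-stimulated signal.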

[5] = system: bone cell marker genes, sclerostin; assay: 3-week mouse study: cortical bone RT-qPCR and sclerostin immunohistochemistry; format: in vivo, mice; settings: 3 weeks of treatment
Description: . For this, cortical bone RNA isolated from mice following three weeks of cmpd. 51 treatment were analyzed and subjected to RT-qPCR for well-established bone cell marker genes. […]. […] Therefore, sclerostin (encoded by the Sost gene) expression in bone in response to cmpd. 51 treatment was also assessed by RT-qPCR and immunohistochemistry. […]. Cmpd. 55A (FIG. 17) was also identified. […]

[6] = system: eugonadal 8 week old male mice; assay: 3-week mouse study: serum mineral metabolism parameters and bone turnover markers; format: in vivo; settings: for serum CTX (bone resorption marker) / serum P1NP (bone formation marker): 40 mg/kg oral, 21 days, compared to vehicle; for serum 1,25-vitamin D / serum BUN / serum PTH levels / serum calcium / serum phosphorus: after 21 days of treatment, 2 hours after final dose
Description: . In addition, one group of mice with oral vehicle solution (negative control) and another group of mice were treated with once daily subcutaneous hPTH(1-34) (80 μg/kg) injections (positive control). […]. Serum mineral metabolism parameters were measured in mice in all 5 treatment groups after 21 days of treatment (serum was collected 2 hours after the final treatment dose). […]. Serum bone turnover markers (P1NP, a marker of bone formation; CTX, a marker of bone resorption) were next measured on samples collected after 21 days of treatment. […]

[7] = system: 12 week old female C57B6 mice, sham or OVX; assay: Ovariectomy (OVX) mouse model of post-menopausal osteoporosis; format: in vivo
Description: Recent reports have described the signaling pathway used by PTH in target cells in bone (see e.g., Wein et al, Nature Communications, 2016, 7:13176; Wein et al, Trends Endocrinol Metab. 2018; and Nishimori et al, J. Clin. Invest. 2019). One step in this cascade is that PTH signaling leads to PKA-dependent inhibition of salt inducible kinases (SIKs). Small molecule SIK inhibitors, such as YKL-05-099 (see e.g., Sundberg et al, ACS chemical biology, 2016; and Tarumoto et al, Blood, 2019), a tool compound that inhibits all 3 SIK isoforms, mimic the actions of PTH (see e.g., Wein et al, Nature Communications, 2016, 7:13176). The efficacy of YKL-05-099 has been tested in mice rendered hypo-gonadal by surgical removal of the ovaries, a model of post-menopausal osteoporosis. […] Therefore, mice were generated where SIK2/3 can be deleted ubiquitously in a tamoxifen-dependent manner to assess the safety and skeletal efficacy of selective SIK2/3 deletion in adult animals.

SIK1 = SIK1 (Homo sapiens (Human), UniProt P57059); assay: In vitro SIK1 kinase assay; format: biochemical
Description: (§2) Assays were performed in base reaction buffer (20 mM Hepes (pH 7.5), 10 mM MgCl2, 1 mM EGTA, 0.02% Brij35, 0.02 mg/mL BSA, 0.1 mM Na3VO4, 2 mM DTT, 1% DMSO). Compounds were dissolved in 100% DMSO in a 10 mM stock. […] Assays were performed for 20 minutes at room temperature, after which time ^33P-ATP (10 μCi/μL) was added followed by incubation for another 120 minutes at room temperature. Thereafter, radioactivity incorporated into the pEY peptide substrate was detected by filter-binding method. Kinase activity data were expressed as the percent remaining kinase activity in test samples compared to DMSO reactions. IC50 values and curve fits were obtained using Prism (GraphPad Software).

SIK3 = SIK3 (Homo sapiens (Human), UniProt Q9Y2K2); assay: In vitro SIK3 kinase assay; format: biochemical
Description: as §2

SIK1 in HEK293T cells = SIK1 in HEK293T cells (Homo sapiens (Human), UniProt P57059); assay: cell-based; settings: read-out: IC50 for SIK1 (nanoBRET)
Recombinant SIK2 = Recombinant SIK2 (Homo sapiens (Human), UniProt Q9H0K1); assay: biochemical; settings: recombinant SIK2 2.5 nM, 1 μM ATP; read-out: SIK2 IC50
SIK3 in HEK293T cells = SIK3 in HEK293T cells (Homo sapiens (Human), UniProt Q9Y2K2); assay: cell-based; settings: read-out: IC50 for SIK3 (nanoBRET)
[8] = target: NanoLuc-SIK2 fusion in HEK293 cells (Homo sapiens (Human), UniProt Q9H0K1); assay: cell-based; settings: HEK293T cells; read-out: IC50 for SIK2 (nanoBRET)
[9] = mice, YKL-05-099 18 mg/kg once daily for 4 weeks

SIK1 in HEK293T cells, sequence (P57059 whole entry): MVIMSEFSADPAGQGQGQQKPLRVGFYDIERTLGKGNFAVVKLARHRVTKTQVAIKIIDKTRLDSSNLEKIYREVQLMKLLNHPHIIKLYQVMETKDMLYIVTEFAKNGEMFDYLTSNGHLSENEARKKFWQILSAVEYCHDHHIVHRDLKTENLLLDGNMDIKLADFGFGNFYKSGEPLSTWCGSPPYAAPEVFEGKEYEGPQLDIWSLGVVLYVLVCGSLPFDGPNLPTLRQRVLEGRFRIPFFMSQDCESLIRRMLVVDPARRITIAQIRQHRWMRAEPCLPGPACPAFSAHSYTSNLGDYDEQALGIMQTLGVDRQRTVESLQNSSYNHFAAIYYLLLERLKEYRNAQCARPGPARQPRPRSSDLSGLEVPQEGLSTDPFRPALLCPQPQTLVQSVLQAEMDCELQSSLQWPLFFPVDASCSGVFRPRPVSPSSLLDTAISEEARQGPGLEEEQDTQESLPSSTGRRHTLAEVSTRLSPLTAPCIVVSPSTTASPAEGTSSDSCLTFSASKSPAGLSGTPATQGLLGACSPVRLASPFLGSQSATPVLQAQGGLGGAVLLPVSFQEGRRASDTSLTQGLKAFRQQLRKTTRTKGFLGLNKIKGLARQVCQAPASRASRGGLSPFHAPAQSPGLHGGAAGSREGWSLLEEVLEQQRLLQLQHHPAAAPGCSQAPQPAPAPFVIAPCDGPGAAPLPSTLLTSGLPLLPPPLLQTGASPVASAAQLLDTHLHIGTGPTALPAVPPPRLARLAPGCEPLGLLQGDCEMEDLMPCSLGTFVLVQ
SIK1, sequence (P57059 whole entry): as above
SIK3 in HEK293T cells, sequence (Q9Y2K2 whole entry, the tested form may be a part): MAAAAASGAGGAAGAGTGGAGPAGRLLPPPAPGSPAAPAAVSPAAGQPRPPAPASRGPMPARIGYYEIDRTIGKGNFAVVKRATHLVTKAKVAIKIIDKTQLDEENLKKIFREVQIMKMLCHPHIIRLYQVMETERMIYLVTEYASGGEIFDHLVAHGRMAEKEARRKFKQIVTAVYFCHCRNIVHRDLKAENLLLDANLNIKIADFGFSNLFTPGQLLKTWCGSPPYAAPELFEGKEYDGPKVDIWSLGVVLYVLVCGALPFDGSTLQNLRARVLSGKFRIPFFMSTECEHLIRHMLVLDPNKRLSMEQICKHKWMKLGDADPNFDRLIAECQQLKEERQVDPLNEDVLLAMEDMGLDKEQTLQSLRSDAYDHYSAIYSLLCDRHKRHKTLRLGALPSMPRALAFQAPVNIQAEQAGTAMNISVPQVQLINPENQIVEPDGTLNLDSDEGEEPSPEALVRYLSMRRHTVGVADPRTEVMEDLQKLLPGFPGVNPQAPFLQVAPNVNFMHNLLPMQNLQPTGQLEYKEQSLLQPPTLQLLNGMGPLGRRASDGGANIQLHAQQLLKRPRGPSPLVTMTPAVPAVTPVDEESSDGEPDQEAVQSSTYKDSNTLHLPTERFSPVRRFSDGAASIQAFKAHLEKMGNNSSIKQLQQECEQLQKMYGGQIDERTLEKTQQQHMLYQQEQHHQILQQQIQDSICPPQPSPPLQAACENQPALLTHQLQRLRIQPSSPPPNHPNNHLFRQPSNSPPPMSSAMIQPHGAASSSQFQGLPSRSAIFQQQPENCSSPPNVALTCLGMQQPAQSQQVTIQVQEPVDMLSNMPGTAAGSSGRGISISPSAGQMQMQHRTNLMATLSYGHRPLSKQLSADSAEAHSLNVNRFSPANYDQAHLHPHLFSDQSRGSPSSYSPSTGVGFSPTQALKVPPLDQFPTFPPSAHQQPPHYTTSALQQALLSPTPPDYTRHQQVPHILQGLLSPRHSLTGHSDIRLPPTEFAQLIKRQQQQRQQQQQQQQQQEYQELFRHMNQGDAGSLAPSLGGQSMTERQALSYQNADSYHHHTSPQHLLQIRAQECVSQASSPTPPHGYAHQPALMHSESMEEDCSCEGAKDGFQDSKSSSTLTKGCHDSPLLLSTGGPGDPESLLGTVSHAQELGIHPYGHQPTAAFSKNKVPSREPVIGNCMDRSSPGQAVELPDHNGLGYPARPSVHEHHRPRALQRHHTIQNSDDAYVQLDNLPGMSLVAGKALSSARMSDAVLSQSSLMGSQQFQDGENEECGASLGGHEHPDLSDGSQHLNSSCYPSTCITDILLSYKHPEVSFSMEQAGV
SIK3, sequence (Q9Y2K2 whole entry): as the sequence (Q9Y2K2 whole entry, the tested form may be a part) above
Recombinant SIK2, sequence (Q9H0K1 whole entry): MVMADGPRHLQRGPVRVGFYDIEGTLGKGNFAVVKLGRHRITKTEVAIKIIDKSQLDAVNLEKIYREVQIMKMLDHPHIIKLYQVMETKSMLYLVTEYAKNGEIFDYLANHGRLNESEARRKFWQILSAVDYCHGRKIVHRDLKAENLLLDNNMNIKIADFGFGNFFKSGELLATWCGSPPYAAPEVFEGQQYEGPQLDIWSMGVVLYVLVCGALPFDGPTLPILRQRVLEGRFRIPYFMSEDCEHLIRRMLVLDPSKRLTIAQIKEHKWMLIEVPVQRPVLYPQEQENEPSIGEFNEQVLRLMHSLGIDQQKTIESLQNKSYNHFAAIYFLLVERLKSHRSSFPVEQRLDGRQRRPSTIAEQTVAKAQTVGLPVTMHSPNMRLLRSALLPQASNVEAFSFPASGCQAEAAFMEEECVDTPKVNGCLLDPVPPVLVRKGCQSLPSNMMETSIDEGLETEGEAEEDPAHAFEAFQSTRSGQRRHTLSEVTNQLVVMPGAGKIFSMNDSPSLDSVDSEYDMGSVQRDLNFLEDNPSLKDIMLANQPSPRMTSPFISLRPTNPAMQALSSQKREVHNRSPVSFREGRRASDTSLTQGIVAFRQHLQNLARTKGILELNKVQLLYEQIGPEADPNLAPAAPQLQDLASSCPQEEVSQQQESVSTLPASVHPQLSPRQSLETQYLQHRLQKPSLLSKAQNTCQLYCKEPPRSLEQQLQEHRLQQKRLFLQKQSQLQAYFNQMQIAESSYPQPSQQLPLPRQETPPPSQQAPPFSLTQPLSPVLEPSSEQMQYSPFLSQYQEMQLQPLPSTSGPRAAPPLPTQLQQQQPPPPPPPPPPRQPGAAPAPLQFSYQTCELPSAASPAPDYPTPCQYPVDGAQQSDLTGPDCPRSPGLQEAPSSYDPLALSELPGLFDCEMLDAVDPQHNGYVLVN
NanoLuc-SIK2 fusion in HEK293 cells, sequence (Q9H0K1 whole entry, the tested form may be a part): as the sequence (Q9H0K1 whole entry) above

CCc1nnc(-c2c(OC)cc(-c3cnc4cc(-c5cnn(C)c5)ccn34)cc2OC)o1 [Example 51, 2-[2,6-Dimethoxy-4-[7-(1-methylpyrazol-4-yl)imidazo[1,2-a]pyridin-3-yl]phenyl]-5-ethyl-1,3,4-oxadiazole]
RANKL expression (RANKL): stimulates RANKL expression
RANKL expression (RANKL; listed as cmpd. 51): increased RANKL; also recorded: induction of RANKL
oral availability ([1]; single dose of 10 mg/kg): excellent oral availability
maximum serum concentration ([1]; single oral dose of 10 mg/kg): 11 µM
serum drug levels ([2]; 2 hours after oral gavage on day 13, 3 dose groups): increased in a dose-dependent manner; also recorded: Dose-dependent increases
tolerability (health concerns, weight loss, toxicities) ([2]; mice, once daily oral gavage for 3 weeks): without obvious health concerns or weight loss; also recorded: without obvious toxicities
primary spongiosa bone mineral density (BMD), microCT ([3]; distal femur, 40 mg/kg): increased bone mineral density (BMD)
primary spongiosa bone volume fraction (BV/TV), microCT ([3]; distal femur, 40 mg/kg): increased primary spongiosa bone volume fraction (BV/TV)
midshaft cortical bone tissue mineral density (TMD), microCT ([3]; listed as Cmpd. 51): increased cortical bone tissue mineral density
midshaft cortical bone tissue mineral density (TMD), microCT ([3]; listed as cmpd. 51): gains in bone mass
SOST expression (SOST): reduces SOST
SOST expression (SOST; listed as cmpd. 51): suppressed SOST expression; also recorded: suppression of SOST expression
HDAC4/5 phosphorylation (HDAC4/5): reduces levels of HDAC4/5 phosphorylation
HDAC4/5 phosphorylation (HDAC4/5; listed as Cmpd. 51): reduced phosphorylated HDAC4/5 levels
HDAC4/5 phosphorylation (HDAC4/5; listed as cmpd. 51): dose-dependent reduction of phosphorylation
TRAP-positive osteoclasts (tibia sections) ([4]; cmpd. 51 40 mg/kg): increased TRAP-positive osteoclasts
osteoblasts (tibia sections) ([4]; cmpd. 51 40 mg/kg): increased osteoblasts
trabecular bone (tibia sections, hematoxylin and eosin) ([4]; cmpd. 51 40 mg/kg): increased trabecular bone mass
bone formation rate (BFR/BS), histomorphometry ([4]; distal femur metaphysis): increased the bone formation rate
bone volume fraction (BV/TV), histomorphometry ([4]; distal femur metaphysis): increased bone volume fraction (BV/TV); also recorded: increased trabecular bone mass
matrix apposition rate (MAR), histomorphometry ([4]; distal femur metaphysis): increased matrix apposition rate
mineralizing surface (MS/BS), histomorphometry ([4]; distal femur metaphysis): Neither cmpd. 51 nor PTH treatment increased
osteoblast surfaces (Ob.S.BS), histomorphometry ([4]; distal femur metaphysis): increased osteoblast surfaces
osteoclast numbers (N.Oc/B.Pm), histomorphometry ([4]; distal femur metaphysis): increased osteoclast numbers
EC50 (CRTC2 (TORC2); Homo sapiens, U2OS, read-out: CRTC2 nuclear translocation EC50): 147 nM
CRTC2 Efficacy (% of forskolin) (CRTC2 (TORC2); maximal CRTC2 nuclear translocation, U2OS cells, 90 minutes, maximum dose 10 μM): 86.5 % of forskolin
Ctsk (cathepsin K) expression in cortical bone ([5]; RT-qPCR): expression was increased; also recorded: increases the expression
Sost mRNA (sclerostin gene expression) in cortical bone ([5]; RT-qPCR): reduced sclerostin gene expression
Spp1 (osteopontin) expression in cortical bone ([5]; RT-qPCR): expression was increased; also recorded: increases the expression of Spp1
sclerostin protein levels in bone ([5]; immunohistochemistry): reduced
serum CTX (bone resorption marker) ([6]; listed as Cmpd. 51): increasing this marker of bone remodeling
serum P1NP (bone formation marker) ([6]; listed as Cmpd. 51): increasing this marker of bone remodeling
serum CTX (bone resorption marker) ([6]; listed as cmpd. 51): increased
serum P1NP (bone formation marker) ([6]; listed as cmpd. 51): increased P1NP
serum 1,25-vitamin D ([6]; listed as Cmpd. 51): increased serum 1,25-vitamin D
serum BUN ([6]; listed as Cmpd. 51): did not affect serum BUN levels
serum PTH levels ([6]; listed as Cmpd. 51): suppressed PTH levels
serum calcium ([6]; listed as Cmpd. 51): increased serum calcium
serum phosphorus ([6]; listed as Cmpd. 51): did not affect serum phosphorus levels
serum 1,25-vitamin D ([6]; listed as cmpd. 51): increased 1,25-vitamin D levels
serum BUN ([6]; listed as cmpd. 51): did not alter
serum PTH levels ([6]; listed as cmpd. 51): reduced serum PTH levels
serum calcium ([6]; listed as cmpd. 51): increased calcium
serum phosphorus ([6]; listed as cmpd. 51): did not alter

COc1ccc(N2C(=O)N(c3c(C)cccc3Cl)Cc3cnc(Nc4ccc(C5CCN(C)CC5)cc4OC)nc32)nc1 [YKL-05-099]
bone density / bone mass and bone formation ([7]; OVX mice, once daily for 4 weeks, PTH 100 mcg/d, YKL-05-099 18 mg/kg): comparable/superior efficacy; also recorded: increase bone density and bone formation rate
BUN levels / renal function [7, 9]: impaired renal function; also recorded: increased
fasting glucose [7, 9]: hyper-glycemia; also recorded: increased

CCc1nnc(-c2c(OC)cc(-c3cnc4cc(-c5cnn(C6CC6)c5)ccn34)cc2OC)o1 [Example 55, 2-[4-[7-(1-Cyclopropylpyrazol-4-yl)imidazo[1,2-a]pyridin-3-yl]-2,6-dimethoxy-phenyl]-5-ethyl-1,3,4-oxadiazole]
RANKL Fold Induction (RANKL; maximal RANKL fold induction versus DMSO, four hours): 22.80 fold
IC50 (SIK1): 16 nM
IC50 (SIK3): 2.66 nM
IC50 (SIK1 in HEK293T cells): 2100 nM
IC50 (Recombinant SIK2): 1.48 nM
IC50 (SIK3 in HEK293T cells): 4.48 nM
IC50 [8]: 12.2 nM
